Source: patent US12459921B2, “Isoindoline compound, preparation method, pharmaceutical composition and use thereof” (SHANGHAI INSTITUTE OF MATERIA MEDICA, CHINESE ACADEMY OF …, priority 2018, dated 2025)
Read-outs that look alike come from different tables or passages of the source.

Legend:
[1] = system: MM.1S cells; test: Inhibitory effect on the proliferation of MM.1S, MTS cell viability test; assay type: cell-based; conditions: multiple myeloma MM.1S cells, 7 days incubation, read-out: Tumor cell inhibitory activity
Summary of the method: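 MM.1S cells (20,000/well, RPMI 1640 with 10% FBS) exposed to 5-fold compound dilutions at 0.2% DMSO for 7 days at 37° C, 5% CO2. MTS added for 3-4 h; OD490-OD690 gave inhibition versus DMSO, IC50 fitted, mean of three experiments.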

[2] = system: MV-4-11 cells; test: Inhibitory effect on the proliferation of MV-4-11 cells, MTS cell viability test; assay type: cell-based; conditions: acute leukemia MV-4-11 cells, 7 days incubation, read-out: Tumor cell inhibitory activity
Experimental: Method of tumor cell proliferation inhibition test: the inventors tested all the example compounds on hematologic tumor cells, multiple myeloma MMTs cell line and acute leukemia cell MV-4-11 cell line of some examples. The activity test method and results are as follows.
2. The Inhibitory Effect of Compounds on the Proliferation of MV-4-11 Cells, MTS Cell Viability Test: 1). Experimental Method:
MV-4-11 cells were cultured and collected with IMDM and 10% fetal bovine serum. The cell concentration was diluted according to 7 days, and 180 ul of cell suspension was added to each well of a 96-well cell plate to 2000 cells. 20 ul of DMSO with a final concentration of 0.2% was added to the control wells. The compound was diluted 5-fold from the 10 mM stock solution, and 20 ul was also added to the compound cell wells (the final concentration of DMSO was 0.2%). The cells were placed in a 37° C., 5% CO2 incubator and incubated for 7 days. After the reaction solution was prepared according to the MTS kit (Promega, G5430), 20 μL was added to each well, incubated in a 37° C., 5% CO2 incubator for 3-4 h. The 490 nm absorbance value was read with a microtiter plate, and the 690 nm absorbance value was used as the background value. OD490-OD690 was used as the final initial data. The formula for calculating the inhibition rate of the compound was: inhibition rate=(ODDMSO-ODcompound)/(ODDMSO-Oblank)×100%. The compound's proliferation inhibition IC50 was fitted by Graph Pad Prism 5.0. The experiment was repeated three times, and the average and standard deviation was calculated according to three parallel experiments each time.

IC50 ([2]; Homo sapiens, MV4-11, 168 h) | IC50 [1] | IC50 [2] | SMILES | IC50 ([1]; Homo sapiens, MM1.S, 168 h)
> 20000 nM | – | – | Cc1nc2cccc(N)c2c(=O)n1C1CCC(=O)NC1=O (stereo not shown) [CC-122, reference compound] | < 100 nM
> 20000 nM | – | – | O=C1CCC(N2Cc3c(OCc4ccc(CN5CCOCC5)cc4)cccc3C2=O)C(=O)N1 (stereo not shown) [CC-220, reference compound] | < 100 nM
– | < 100 nM | 110 nM | O=C1CCC(N2Cc3c(CCCCCN4CCC(c5noc6cc(F)ccc56)CC4)cccc3C2=O)C(=O)N1 (stereo not shown) [Example 22, 3-(4-(5-(4-(6-fluorobenzo[d]isoxazole-3-)piperidine-1-)pentyl)-1-oxoisoindoline-2-)piperidine-2,6-dione] | –
180 nM | – | – | O=C1CCC(N2Cc3c(CCCCCN4CCc5ccccc54)cccc3C2=O)C(=O)N1 (stereo not shown) [Example 107, 3-(4-(5-(indoline-1-)pentyl)-1-oxoisoindoline-2-)piperidine-2,6-dione] | < 100 nM
220 nM | – | – | O=C1CCC(N2Cc3c(CCCCCN4CCc5ccc(Br)cc54)cccc3C2=O)C(=O)N1 (stereo not shown) [Example 114, 3-(4-(5-(5-bromoindoline-1-)pentyl)-1-oxoisoindoline-2-)piperidine-2,6-dione] | 100 to 1000 nM
14 nM | – | – | Cc1ccc(NC(=O)CCCOc2cccc3c2CN(C2CCC(=O)NC2=O)C3=O)cc1Cl (stereo not shown) [Example 158, N-(3-chloro-4-methylphenyl)-4-((2-(2,6-dioxopiperidine-3-)-1-oxoisoindoline-4-)oxy)butanamide] | < 100 nM
250 nM | – | – | CC(=O)N[C@@H](CCCc1cccc2c1CN(C1CCC(=O)NC1=O)C2=O)C(=O)Nc1ccccc1 (stereo partly drawn) [Example 164, (2S)-2-acetylamino-5-(2-(2,6-dioxopiperidine-3-)-1-oxoisoindoline-4-)-N-phenylpentanamide] | < 100 nM
200 nM | – | – | CC(=O)N[C@@H](CCCc1cccc2c1CN(C1CCC(=O)NC1=O)C2=O)C(=O)NCc1ccccc1 (stereo partly drawn) [Example 166, (2S)-2-acetylamino-N-benzyl-5-(2-(2,6-dioxopiperidine-3-)-1-oxoisoindoline-4-)pentanamide] | 100 to 1000 nM
35 nM | – | – | CC(C)C(=O)N[C@@H](CCCc1cccc2c1CN(C1CCC(=O)NC1=O)C2=O)C(=O)NCc1ccccc1 (stereo partly drawn) [Example 167, (2S)-N-benzyl-5-(2-(2,6-dioxopiperidine-3-)-1-oxoisoindoline-4-)-2-iso butyramidopentaneamide] | < 100 nM
29 nM | – | – | O=C1CCC(N2Cc3c(CCC[C@H](NC(=O)C4CCC4)C(=O)NCc4ccccc4)cccc3C2=O)C(=O)N1 (stereo partly drawn) [Example 173, N-((2S)-1-(benzylamine)-5-(2-(2,6-dioxopiperidine-3-)-1-oxoisoindoline-4-)-1-oxopentyl-2-)cyclobutylcarboxamide] | < 100 nM
17 nM | – | – | CC(=O)N[C@@H](CCCc1cccc2c1CN(C1CCC(=O)NC1=O)C2=O)C(=O)NCc1cccc(Br)c1 (stereo partly drawn) [Example 182, (2S)-2-acetylamino-N-(3-bromobenzyl)-5-(2-(2,6-dioxopiperidine-3-)-1-oxoisoindoline-4-)pentanamide] | < 100 nM
600 nM | – | – | O=C1CCC(N2Cc3c(CCCCN4CCN(c5cccc6ccsc56)CC4)cccc3C2=O)C(=O)N1 (stereo not shown) [Example 221, 3-(4-(4-(4-(benzothiophene-7-yl)piperazin-1-yl)butyl)-1-oxoisoindoline-2-yl)piperidine-2,6-dione] | < 100 nM
– | – | – | COc1ccc(C2(C#N)CCN(CCCCCc3cccc4c3CN(C3CCC(=O)NC3=O)C4=O)CC2)cc1 (stereo not shown) [Example 265, 1-(5-(2-(2,6-dioxopiperidin-3-yl)-1-oxoisoindolin-4-yl)pentyl)-4-(4-methoxyphenyl)piperidine-4-carbonitrile] | 1000 to 20000 nM
– | – | – | N#CC1(c2c(Cl)cccc2Cl)CCN(CCCCc2cccc3c2CN(C2CCC(=O)NC2=O)C3=O)CC1 (stereo not shown) [Example 266, 4-(2,6-dichlorophenyl)-1-(4-(2-(2,6-dioxopiperidin-3-yl)-1-oxoisoindoline-4-yl)butyl)piperidine-4-carbonitrile] | 100 to 1000 nM
– | – | – | COc1ccc(C2(C#N)CCN(CCCCCc3cccc4c3CN(C3CCC(=O)NC3=O)C4=O)CC2)c(Cl)c1 (stereo not shown) [Example 267, 4-(2-chloro-4-methoxyphenyl)-1-(5-(2-(2,6-dioxopiperidin-3-yl)-1-oxoisoindoline-4-yl)pentyl)piperidine-4-carbonitrile] | 100 to 1000 nM
– | – | – | N#Cc1ccc(C2(C#N)CCN(CCCCCc3cccc4c3CN(C3CCC(=O)NC3=O)C4=O)CC2)cc1 (stereo not shown) [Example 268, 4-(4-cyanophenyl)-1-(5-(2-(2,6-dioxopiperidin-3-yl)-1-oxoisoindoline-4-yl)pentyl)piperidine-4-carbonitrile] | 100 to 1000 nM
– | – | – | N#CC1(c2cc(Cl)ccc2Cl)CCN(CCCCc2cccc3c2CN(C2CCC(=O)NC2=O)C3=O)CC1 (stereo not shown) [Example 269, 4-(2,5-dichlorophenyl)-1-(4-(2-(2,6-dioxopiperidin-3-yl)-1-oxoisoindoline-4-yl)butyl)piperidine-4-carbonitrile] | 100 to 1000 nM
– | – | – | N#CC1(c2ccc(OC3COC3)cc2)CCN(CCCCCc2cccc3c2CN(C2CCC(=O)NC2=O)C3=O)CC1 (stereo not shown) [Example 270, 1-(5-(2-(2,6-dioxopiperidin-3-yl)-1-oxoisoindolin-4-yl)pentyl)-4-(4-(oxetan-3-yloxy)phenyl)piperidine-4-carbonitrile] | 100 to 1000 nM
– | – | – | N#CC1(c2ccc(C(F)(F)F)cc2)CCN(CCCCCc2cccc3c2CN(C2CCC(=O)NC2=O)C3=O)CC1 (stereo not shown) [Example 271, 1-(5-(2-(2,6-dioxopiperidin-3-yl)-1-oxoisoindolin-4-yl)pentyl)-4-(4-(trifluoromethyl)phenyl)piperidine-4-carbonitrile] | 1000 to 20000 nM
– | – | – | N#CC1(c2ccc(Cl)c(Cl)c2)CCN(CCCCc2cccc3c2CN(C2CCC(=O)NC2=O)C3=O)CC1 (stereo not shown) [Example 272, 4-(3,4-dichlorophenyl)-1-(4-(2-(2,6-dioxopiperidin-3-yl)-1-oxoisoindoline-4-yl)butyl)piperidine-4-carbonitrile] | 100 to 1000 nM
– | – | – | O=C1CCC(N2Cc3c(CCCCCN4CCC5(CC4)OCc4cc(F)ccc45)cccc3C2=O)C(=O)N1 (stereo not shown) [Example 273, 3-(4-(5-(5-fluoro-3H-spiro[isobenzofuran-1,4′-piperidine]-1′-)pentyl)-1-oxoisoindoline-2-yl)piperidine-2,6-dione] | 100 to 1000 nM
– | – | – | O=C1CCC(N2Cc3c(CCCCCN4CCC5(CC4)OCc4cc(Cl)ccc45)cccc3C2=O)C(=O)N1 (stereo not shown) [Example 274, 3-(4-(5-(5-chloro-3H-spiro[isobenzofuran-1,4′-piperidin]-1-yl)pentyl)-1-oxoisoindoline-2-yl)piperidine-2,6-dione] | 100 to 1000 nM
– | – | – | O=C1CCC(N2Cc3c(CCCCCN4CCC5(CC4)C(=O)Nc4cccc(Cl)c45)cccc3C2=O)C(=O)N1 (stereo not shown) [Example 276, 3-(4-(5-(4-chloro-2-oxospiro[dihydroindole-3,4-piperidin]-1-yl)pentyl)-1-oxoisoindoline-2-yl)piperidine-2,6-dione] | 100 to 1000 nM
– | – | – | O=C1CCC(N2Cc3c(CCCCCN4CCC5(CC4)OC(=O)Nc4ccc(Cl)cc45)cccc3C2=O)C(=O)N1 (stereo not shown) [Example 277, 3-(4-(5-(6-chloro-2-oxo-1,2-dihydrospiro[benzo[1,3]oxazine-4,4′-piperidine]-1′-yl)pentyl)-1-oxoisoindolin-2-yl)piperidine-2,6-dione] | 100 to 1000 nM
– | – | – | O=C1CCC(N2Cc3c(CCCCCN4CCC5(CC4)C(=O)Nc4ccc(F)cc45)cccc3C2=O)C(=O)N1 (stereo not shown) [Example 278] | 100 to 1000 nM
– | – | – | O=C1CCC(N2Cc3c(CCCCCN4CCC5(CC4)C(=O)Nc4c(Cl)cccc45)cccc3C2=O)C(=O)N1 (stereo not shown) [Example 279, 3-(4-(5-(7-chloro-2-oxospiro[dihydroindole-3,4-piperidin]-1-yl)pentyl)-1-oxoisoindoline-2-yl)piperidine-2,6-dione] | 100 to 1000 nM
– | – | – | O=C1CCC(N2Cc3c(CCCCCN4CCC5(CC4)OCc4c(Cl)cccc45)cccc3C2=O)C(=O)N1 (stereo not shown) [Example 280, 3-(4-(5-(4-chloro-3H-spiro[isobenzofuran-1,4′-piperidin]-1-yl)pentyl)-1-oxoisoindoline-2-yl)piperidine-2,6-dione] | 100 to 1000 nM

SMILES | IC50 ([2]; Homo sapiens, MV4-11, 168 h) | IC50 [1] | IC50 [2] | IC50 ([1]; Homo sapiens, MM1.S, 168 h)
N#CC1(c2cccc(Cl)c2)CCN(CCCCCc2cccc3c2CN(C2CCC(=O)NC2=O)C3=O)CC1 (stereo not shown) [Example 51, 4-(3-chlorophenyl)-1-(5-(2-(2,6-dioxopiperidine-3-)-1-oxoisoindoline-4-)pentyl) piperidine-4-carbonitrile] | 570 nM | – | – | < 100 nM
O=C1CCC(N2Cc3c(CCCCCN4CCC5(CCc6ccccc65)CC4)cccc3C2=O)C(=O)N1 (stereo not shown) [Example 143, 3-(4-(5-(2,3-dihydrospiro[indene-1,4′-piperidine]-1′-)pentyl)-1-oxoisoindoline-2-)piperidine-2,6-dione] | 610 nM | – | – | < 100 nM
